In patent US12286418B2, “Compounds and methods for treating or preventing bacterial infections” (priority 2019, dated 2025):
“Also recorded” adds a separate entry of the source. Where two headings read alike, the source gives them in different places.

Test system: E. coli MG1655OXA-48
Assay: Bacterial susceptibility (MIC, broth microdilution) of E. coli expressing OXA-48
Assay type: cell-based
Conditions: for MIC: Escherichia coli
Method: Bacterial susceptibility was specifically tested using minimum inhibitory concentration assays. Susceptibility assays were performed with E. coli strains using broth in a microplate set up. Two-fold dilutions of antibiotic and/or inhibitor were used. For susceptibility tests, bacterial strains were transformed with plasmids containing OXA-48 with its endogenous signal sequence for periplasmic migration (cloned into pTP123 vector) (Majiduddin & Palzkill, 2003, Antimicrob. Agents Chemother. 47:1062-1067). pTP123 was cut with XbaI and SacI and the linearized fragment was assembled using Gibson assembly (New England Biolabs, Ipswich, MA) its signal sequence cloned in by using Gibson assembly. Bacteria were grown in Mueller-Hinton broth with 12.5 μg/mL chloramphenicol (plasmid marker) overnight. An overnight culture was diluted 1:10^4 into the final well solutions (100 uL total) and incubated for 16-18 hours. After incubation, microplates were read using a Tecan plate reader at absorbance 600. Growth was objectively defined as yielding an absorbance ≥2 times the absorbance of the negative control (media and no culture). Experiments were repeated with new bacterial inoculums each time.
Effective β-lactamase inhibitors synergize with β-lactam antibiotics and ultimately lower the minimum inhibitory concentration (MIC) of antibiotic needed to kill the bacteria. MIC studies were performed with ampicillin (AMP), a β-lactam antibiotic readily hydrolyzed by OXA-48, against E. coli strain MG1655 expressing OXA-48 (MG1655OXA-48). The OXA-48 plasmid construct contained the endogenous signal sequence of OXA-48 for secretion to the periplasm, which was expressed under a trc-promoter, allowing leaky expression in the absence of IPTG inducer. All MICs were performed by broth microdilution with 2-fold dilutions of antibiotic and/or inhibitor (FIG. 6A). The ampicillin (AMP) and imipenem (IMP) MICs were separately determined for a range of CDD-97 and avibactam concentrations. […] In the absence of bacteria, the media (Mueller Hinton) gives an absorbance reading of 0.04 so absorbance readings greater than or equal to two-fold the control were considered bacterial growth. […] CDD-97 was tested for its synergistic ability by determining AMP MICs with a range of CDD-97 concentrations (up to 256 μg/ml).
Impermeability of the outer membrane to small molecules is a major challenge for the development of therapeutics for Gram-negative bacterial infections. β-lactamases, including OXA-48, reside in the periplasmic space and so inhibitors must traverse the outer membrane to be effective. To determine whether low permeability caused the poor in vivo activity of CDD-97, an accumulation assay (Richter, et al., 2017, Nature 545:299-304) was performed to quantify the amount of CDD-97 present in E. coli cells after incubation. In the assay, tetracycline was used as a positive control while fusidic acid and clindamycin were used as negative controls (Richter, et al., 2017, Nature 545:299-304). Controls and CDD-97 were separately incubated with wildtype E. coli (MG1655) cells and then these cells were centrifuged through silicone oil to separate free, unaccumulated compound from the cell pellet. Cell lysates were collected by freeze-thawing and analyzed by mass spectrometry to quantify the amount of accumulated compound. Compared to tetracycline, CDD-97 was present in cells at 20-fold lower levels (FIG. 6B). […] The finding that CDD-97 accumulates inefficiently across the outer membrane was also examined by adding sub-lethal concentrations of colistin to the ampicillin/CDD-97 MIC assays. Colistin is known to disrupt the outer membrane and enhance permeability in E. coli. If the outer membrane is a barrier for CDD-97, it was predicted that the addition of sub-lethal concentrations of colistin would enhance the activity of CDD-97 against E. coli. […]

CCOc1ccccc1N1CCN(c2ncnc(N3CCC(C(=O)O)CC3)n2)CC1 [CDD-97, 1-(4-(4-(2-ethoxyphenyl)piperazin-1-yl)-1,3,5-triazin-2-yl)piperidine-4-carboxylic acid]
synergy with β-lactam antibiotics (effect on AMP/IMP MIC) in words (E. coli expressing OXA-48, CDD-97 up to 256 μg/mL, avibactam up to 4 μg/mL): did not synergize with ampicillin; also recorded: no synergy was seen between CDD-97 and imipenem; also recorded: colistin potentiates the activity of CDD-97; also recorded: synergizes weakly | MIC (MG1655OXA48, read-out: AMP MIC, with 4 μg/mL CDD-97): 1020 µg/mL | MIC (MG1655OXA48, read-out: AMP MIC, with 8 μg/mL CDD-97): 512 µg/mL | MIC (MG1655OXA48, read-out: AMP MIC, with 16 μg/mL CDD-97): 512 µg/mL | MIC (MG1655OXA48, read-out: AMP MIC, with 32 μg/mL CDD-97): 512 µg/mL | MIC (MG1655OXA48, read-out: AMP MIC, with 64 μg/mL CDD-97): 512 µg/mL | MIC (MG1655OXA48, read-out: AMP MIC, with 128 μg/mL CDD-97): 512 µg/mL | MIC (MG1655OXA48, read-out: AMP MIC, with 256 μg/mL CDD-97): 512 µg/mL | MIC (MG1655OXA48, read-out: AMP MICs, (+) CDD-97 (16 μg/mL), colistin 0 μg/mL): 1020 µg/mL | MIC (MG1655OXA48, read-out: AMP MICs, (+) CDD-97 (16 μg/mL), colistin 0.0625 μg/mL): 512 µg/mL | MIC (MG1655OXA48, read-out: AMP MICs, (+) CDD-97 (16 μg/mL), colistin 0.125 μg/mL): 1020 µg/mL | MIC (MG1655OXA48, read-out: AMP MICs, (+) CDD-97 (16 μg/mL), colistin 0.25 μg/mL): 256 µg/mL | MIC (MG1655OXA48, read-out: AMP MICs, (+) CDD-97 (16 μg/mL), colistin 0.5 μg/mL): 128 µg/mL | MIC (MG1655OXA48, read-out: AMP MICs, (+) CDD-97 (16 μg/mL), colistin 1 μg/mL): 8 µg/mL | MIC (MG1655OXA48, read-out: IMP MIC, with 4 μg/mL CDD-97): 0.625 µg/mL | MIC (MG1655OXA48, read-out: IMP MIC, with 8 μg/mL CDD-97): 0.312 µg/mL | MIC (MG1655OXA48, read-out: IMP MIC, with 16 μg/mL CDD-97): 0.312 µg/mL | MIC (MG1655OXA48, read-out: IMP MIC, with 32 μg/mL CDD-97): 0.312 µg/mL | MIC (MG1655OXA48, read-out: IMP MIC, with 64 μg/mL CDD-97): 0.312 µg/mL | MIC (MG1655OXA48, read-out: IMP MIC, with 128 μg/mL CDD-97): 0.312 µg/mL | MIC (MG1655OXA48, read-out: IMP MIC, with 256 μg/mL CDD-97): 0.625 µg/mL
